# Data reported in ChEMBL document CHEMBL1201862, “PubChem BioAssay data set” (2004).
# Activity calls are given as the source filed them.
# Tests used:
# [1] = Luminescence Cell-Based Dose Response HTS to Identify Inhibitors of 5'UTR Stem-Loop Driven Prion Protein mRNA Translation in H4 Neuroglioblastoma Cells. [Related pubchem assays: 1827 (Project Summary), 1813 (Primary HTS)]; type: functional
# HEK293 [2] = test: SAR Analysis of small molecule inhibitors of B-cell specific antigen receptor-induced NF-kB activation in a HEK-293T cell line using a luminescence assay - Set 2. [Related pubchem assays (depositor defined):AID435022, AID435025, AID489021]; type: functional, cell-based; conditions: Homo sapiens
# [3] = inhibitors of SNCA 5'UTR-driven translation, confirmation, luminescence, H4 neuroglioblastoma cells, dose confirmation (AID 2454); type: functional, cell-based;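 note: H4 neuroglioblastoma cells carrying an alpha-synuclein 5'UTR luciferase reporter; potency for inhibition of the luciferase signal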
# [4] = luciferase reporter signal reduction – luminescence, H4-C neuroglioblastoma cells, dose response (AID 2458); type: functional, cell-based;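 note: H4 neuroglioblastoma cells stably carrying a luciferase reporter gene fusion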
# [5] = Luminescence-based counterscreen assay for KLF5 inhibitors: dose response cell-based high throughput screening assay to identify cytotoxic compounds using the IEC-6 intestinal epithelial cell line. [Related pubchem assays: 1700 (Primary screen.), 1834 (Confirmation screen.), 1858 (Summary AID.), 1905 (Counterscreen.)]; type: functional
# [6] = cytotoxicity in HEK-293T cells, dose response, cytotoxicity control for BCR NF-kB inhibitor project, luminescence, B-cell screen hits (AID 489021); type: functional, cell-based;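 note: HEK-293T cells carrying an NF-kB luciferase reporter; cells exposed to compound for about 14 hours before viability readout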
# cells [7] = type: functional, cell-based
# [8] = inhibitors of SNCA 5'UTR-driven reporter translation, confirmation, H4 neuroglioma cells, luminescence (AID 1988); type: functional, cell-based
# HEK293 [9] = test: cytotoxicity in HEK293T NF-kB-Luc cells, SAR follow-up, cytotoxicity control for NF-kB activator project, cell-based, resazurin fluorescence (AID 493251); type: functional; conditions: Homo sapiens
# Jurkat = test: SAR Analysis of small molecule inhibitors of […] specific antigen receptor-induced NF-kB activation in a Jurkat cell line using a luminescence assay - Set 3. [Related pubchem assays (depositor defined):AID435022, AID435025, AID465]; type: functional, cell-based; conditions: Homo sapiens
# [10] = inhibitors of firefly luciferase expression or activity, dose response, H4 neuroglioma cells, luminescence (AID 1990); type: functional, cell-based
# Cytochrome P450 2C19 = Cytochrome P450 2C19 (Homo sapiens, UniProt P33261); test: Cytochrome panel assay with activity outcomes. Panel member name: p450-cyp2c19 Compounds with AC50 equal or less than 10 uM are considered active; type: functional
# Cytochrome P450 2C9 = Cytochrome P450 2C9 (Homo sapiens, UniProt P11712)
# Cytochrome P450 1A2 = molecular target: T1, Cytochrome P450 1A2 (Homo sapiens, UniProt P05177);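 note: PubChem cytochrome P450 panel assay, CYP1A2 panel member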
# T1 sequence (P05177 whole entry): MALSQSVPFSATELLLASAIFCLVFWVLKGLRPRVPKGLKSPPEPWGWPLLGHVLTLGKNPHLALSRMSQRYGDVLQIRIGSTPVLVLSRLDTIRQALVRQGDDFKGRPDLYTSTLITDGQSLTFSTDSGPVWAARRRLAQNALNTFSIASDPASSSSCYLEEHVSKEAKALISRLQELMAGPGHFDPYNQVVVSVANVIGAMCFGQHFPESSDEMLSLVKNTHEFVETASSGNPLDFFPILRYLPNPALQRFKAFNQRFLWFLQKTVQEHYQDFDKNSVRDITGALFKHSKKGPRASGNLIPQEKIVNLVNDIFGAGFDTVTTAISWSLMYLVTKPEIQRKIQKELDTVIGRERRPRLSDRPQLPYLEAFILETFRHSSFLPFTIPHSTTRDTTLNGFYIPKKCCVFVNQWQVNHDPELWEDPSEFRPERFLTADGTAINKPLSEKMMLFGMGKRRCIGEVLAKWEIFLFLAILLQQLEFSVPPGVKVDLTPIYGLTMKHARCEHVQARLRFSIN
# [11] = molecular target: T2, Dual specificity protein phosphatase 3 (Homo sapiens, UniProt P51452); test: VHR1 phosphatase inhibitors, biochemical (AID 1878)
# [12] = molecular target: T2, Dual specificity protein phosphatase 3; test: VHR1 phosphatase inhibitors, primary screen, biochemical, absorbance, uHTS (AID 1654)
# [13] = molecular target: T3, Tyrosine-protein phosphatase non-receptor type 7 (Homo sapiens, UniProt P35236); test: SAR analysis of chemical inhibitors of HePTP using a Fluorescent assay - Set 2. [Related pubchem assays (depositor defined):AID1059, AID1077, AID1661, AID2085, AID521]; type: functional
# T3 sequence (P35236 whole entry): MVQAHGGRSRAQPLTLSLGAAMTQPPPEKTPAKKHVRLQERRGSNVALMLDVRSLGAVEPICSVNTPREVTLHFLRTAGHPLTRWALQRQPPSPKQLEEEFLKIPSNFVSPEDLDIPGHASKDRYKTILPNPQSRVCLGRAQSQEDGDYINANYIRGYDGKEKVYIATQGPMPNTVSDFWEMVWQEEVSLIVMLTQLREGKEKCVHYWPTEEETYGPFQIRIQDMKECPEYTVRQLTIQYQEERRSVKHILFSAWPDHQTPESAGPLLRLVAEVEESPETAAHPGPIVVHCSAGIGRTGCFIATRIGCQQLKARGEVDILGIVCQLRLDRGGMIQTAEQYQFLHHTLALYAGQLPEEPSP
# [14] = molecular target: Tyrosine-protein phosphatase non-receptor type 11 (Homo sapiens, UniProt Q06124); test: SHP2 phosphatase inhibition, dose response, selectivity assay for STEP inhibitor project, biochemical (AID 602367); type: functional; conditions: read-out: IC50_Mean
# cells [15] = type: functional, cell-based; remark: listed apart in the source
# [16] = molecular target: T4, Dual specificity protein phosphatase 6 (Rattus norvegicus, UniProt Q64346); test: MKP-3 phosphatase inhibitors, primary screen, biochemical, rat enzyme, in vitro (AID 425)
# T4 sequence (Q64346 whole entry): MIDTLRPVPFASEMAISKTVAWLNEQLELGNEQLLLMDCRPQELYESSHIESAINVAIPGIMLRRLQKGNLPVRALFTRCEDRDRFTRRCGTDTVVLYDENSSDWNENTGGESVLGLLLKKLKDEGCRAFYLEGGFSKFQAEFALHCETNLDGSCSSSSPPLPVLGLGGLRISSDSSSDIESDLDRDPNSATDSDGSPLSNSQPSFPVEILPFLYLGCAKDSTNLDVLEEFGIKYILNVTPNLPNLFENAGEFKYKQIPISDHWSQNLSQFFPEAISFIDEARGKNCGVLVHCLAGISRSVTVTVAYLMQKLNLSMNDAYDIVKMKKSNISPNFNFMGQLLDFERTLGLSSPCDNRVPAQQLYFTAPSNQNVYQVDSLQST
# [17] = molecular target: T2, Dual specificity protein phosphatase 3; test: SAR VHR1 Fluorescent Assay for In Vitro dose response studies. [Related pubchem assays (depositor defined):AID1654, AID1661, AID1878, AID1992, AID2004, AID2070, AID2085]; type: functional
# [18] = molecular target: T5, Trace amine-associated receptor 1 (Homo sapiens, UniProt Q96RJ0); test: Fluorescence-based cell-based high throughput dose response assay to identify agonists of the human trace amine associated receptor 1 (TAAR1).; type: functional
# T5 sequence (Q96RJ0 whole entry): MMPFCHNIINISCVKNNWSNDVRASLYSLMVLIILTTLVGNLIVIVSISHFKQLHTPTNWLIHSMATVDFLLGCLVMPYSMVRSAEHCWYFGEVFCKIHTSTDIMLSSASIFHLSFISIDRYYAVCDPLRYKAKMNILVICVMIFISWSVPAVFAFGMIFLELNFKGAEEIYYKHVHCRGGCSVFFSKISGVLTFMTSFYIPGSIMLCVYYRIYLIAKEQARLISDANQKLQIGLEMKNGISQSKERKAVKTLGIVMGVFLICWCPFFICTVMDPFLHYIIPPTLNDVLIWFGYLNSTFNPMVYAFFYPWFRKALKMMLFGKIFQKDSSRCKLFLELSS
# [19] = molecular target: Tyrosine-protein phosphatase non-receptor type 5 (Homo sapiens, UniProt P54829); test: STEP phosphatase inhibitors, confirmation, biochemical, fluorescence intensity, uHTS hits (AID 602372); type: functional; conditions: read-out: IC50_Mean
# [20] = molecular target: T2, Dual specificity protein phosphatase 3; test: SAR VHR1 absorbance Assay for In Vitro dose response studies. [Related pubchem assays (depositor defined):AID1654, AID1661, AID1878, AID1992, AID2004]
# [21] = molecular target: T2, Dual specificity protein phosphatase 3; test: VHR phosphatase inhibition, dose response, selectivity assay for STEP inhibitor project, biochemical (AID 602374); type: functional; conditions: read-out: IC50_Mean
# [22] = molecular target: T4, Dual specificity protein phosphatase 6; test: SAR analysis of inhibitors of MKP-3 - Set 2. [Related pubchem assays (depositor defined):AID1055, AID1661, AID425, AID553, AID566]; type: functional
# cells [23] = type: functional, cell-based; remark: listed apart in the source
# [24] = molecular target: T2, Dual specificity protein phosphatase 3; test: SAR VHR1 Fluorescent Assay for In Vitro dose response studies Set 2. [Related pubchem assays (depositor defined):AID1654, AID1661, AID1878]; type: functional
# [25] = molecular target: T3, Tyrosine-protein phosphatase non-receptor type 7; test: redox-dependent HePTP inhibition, mechanism study, biochemical, fluorescence (AID 2068); type: functional
# [26] = molecular target: T5, Trace amine-associated receptor 1; test: Counterscreen for agonists of the human trace amine associated receptor 1 (hTAAR1): Fluorescence-based cell-based high throughput dose response assay to identify hTAAR1 agonist that also desensitize TAAR1 receptor response.; type: functional
# [27] = molecular target: T4, Dual specificity protein phosphatase 6; type: functional
# T2 sequence (P51452 whole entry): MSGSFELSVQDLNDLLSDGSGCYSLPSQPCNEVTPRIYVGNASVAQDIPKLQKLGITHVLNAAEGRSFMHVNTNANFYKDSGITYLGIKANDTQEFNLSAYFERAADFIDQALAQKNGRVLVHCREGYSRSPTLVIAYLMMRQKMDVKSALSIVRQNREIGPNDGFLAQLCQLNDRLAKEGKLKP
# Sequence of Cytochrome P450 2C9 (P11712 whole entry): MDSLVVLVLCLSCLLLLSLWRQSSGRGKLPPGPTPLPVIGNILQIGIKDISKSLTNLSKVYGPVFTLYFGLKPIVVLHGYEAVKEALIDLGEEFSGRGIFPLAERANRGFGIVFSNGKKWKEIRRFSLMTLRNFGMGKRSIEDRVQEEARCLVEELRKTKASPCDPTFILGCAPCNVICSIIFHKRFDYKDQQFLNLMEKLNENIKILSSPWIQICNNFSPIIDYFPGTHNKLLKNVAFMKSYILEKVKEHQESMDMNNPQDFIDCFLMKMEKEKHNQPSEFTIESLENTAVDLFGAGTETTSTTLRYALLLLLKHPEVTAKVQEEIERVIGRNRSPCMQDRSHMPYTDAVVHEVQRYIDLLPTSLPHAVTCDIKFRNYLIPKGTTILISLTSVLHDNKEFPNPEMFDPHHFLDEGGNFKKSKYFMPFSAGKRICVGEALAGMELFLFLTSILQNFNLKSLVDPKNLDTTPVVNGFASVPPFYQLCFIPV
# Sequence of Tyrosine-protein phosphatase non-receptor type 5 (P54829 whole entry): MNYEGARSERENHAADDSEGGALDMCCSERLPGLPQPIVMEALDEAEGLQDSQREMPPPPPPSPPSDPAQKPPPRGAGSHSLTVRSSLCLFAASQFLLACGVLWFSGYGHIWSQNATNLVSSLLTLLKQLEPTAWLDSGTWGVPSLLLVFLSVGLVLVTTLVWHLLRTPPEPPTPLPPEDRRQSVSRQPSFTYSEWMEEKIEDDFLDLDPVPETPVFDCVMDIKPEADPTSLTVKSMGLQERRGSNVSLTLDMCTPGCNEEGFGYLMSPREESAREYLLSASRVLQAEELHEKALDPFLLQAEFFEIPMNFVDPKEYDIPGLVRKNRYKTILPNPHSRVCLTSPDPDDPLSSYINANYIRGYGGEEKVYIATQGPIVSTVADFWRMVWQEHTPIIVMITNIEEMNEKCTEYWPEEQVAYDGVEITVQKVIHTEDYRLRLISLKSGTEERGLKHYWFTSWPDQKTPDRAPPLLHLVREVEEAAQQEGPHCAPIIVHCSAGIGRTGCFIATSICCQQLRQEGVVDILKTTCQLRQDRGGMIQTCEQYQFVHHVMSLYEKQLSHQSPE
# Sequence of Tyrosine-protein phosphatase non-receptor type 11 (Q06124 whole entry): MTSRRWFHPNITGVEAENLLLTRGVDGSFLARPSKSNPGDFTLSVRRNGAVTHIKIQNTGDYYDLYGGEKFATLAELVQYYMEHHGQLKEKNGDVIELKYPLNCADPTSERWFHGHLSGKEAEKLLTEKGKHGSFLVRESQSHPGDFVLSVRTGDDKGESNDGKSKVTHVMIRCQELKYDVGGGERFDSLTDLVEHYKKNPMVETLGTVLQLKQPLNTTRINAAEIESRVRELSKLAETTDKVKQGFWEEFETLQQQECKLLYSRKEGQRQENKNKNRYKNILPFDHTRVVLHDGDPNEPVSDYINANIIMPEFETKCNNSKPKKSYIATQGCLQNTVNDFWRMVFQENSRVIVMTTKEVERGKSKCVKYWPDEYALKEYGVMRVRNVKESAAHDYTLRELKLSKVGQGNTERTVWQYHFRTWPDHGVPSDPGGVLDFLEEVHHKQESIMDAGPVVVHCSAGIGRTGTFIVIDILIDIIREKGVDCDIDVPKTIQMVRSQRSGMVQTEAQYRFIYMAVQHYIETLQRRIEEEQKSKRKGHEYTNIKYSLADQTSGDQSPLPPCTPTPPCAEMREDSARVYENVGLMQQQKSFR
# Sequence of Cytochrome P450 2C19 (P33261 whole entry): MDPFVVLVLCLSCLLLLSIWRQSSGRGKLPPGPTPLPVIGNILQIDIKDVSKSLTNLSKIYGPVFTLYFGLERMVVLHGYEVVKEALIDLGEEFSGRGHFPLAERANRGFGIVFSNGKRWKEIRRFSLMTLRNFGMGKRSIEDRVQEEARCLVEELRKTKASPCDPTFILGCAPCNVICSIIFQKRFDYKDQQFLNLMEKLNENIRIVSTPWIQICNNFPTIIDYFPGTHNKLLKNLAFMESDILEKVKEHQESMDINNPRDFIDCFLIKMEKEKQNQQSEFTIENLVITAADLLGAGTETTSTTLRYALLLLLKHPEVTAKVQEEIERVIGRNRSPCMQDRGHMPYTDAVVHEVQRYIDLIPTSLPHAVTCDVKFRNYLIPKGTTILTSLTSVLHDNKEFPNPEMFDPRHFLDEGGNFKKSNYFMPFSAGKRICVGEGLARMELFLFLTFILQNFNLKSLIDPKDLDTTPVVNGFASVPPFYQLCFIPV
compound,measurement,setting,value
CC(C)(C)c1ccc(-c2noc(CCC(=O)Nc3cccnc3)n2)cc1,EC50,[1],< 0.1 µM (active)
same,IC50,HEK293 [2],0.47 µM (active)
same,EC50,[3],0.774 µM (active)
same,EC50,[4],1.18 µM (active)
same,IC50,[5],> 39.8 µM (not active)
same,IC50,[6],> 80 µM (inactive)
same,EC50,cells [7],0.321 µM (active)
same,EC50,[8],< 0.1 µM (active)
same,IC50,HEK293 [9],20.5 µM (inactive)
same,IC50,Jurkat,0.435 µM (active)
same,EC50,[10],< 0.1 µM (active)
Cc1noc(C)c1C(=O)N1CCC2(CCCN(C(=O)NC(C)C)C2)CC1,AC50,Cytochrome P450 2C19,inconclusive
same,AC50,Cytochrome P450 2C9,inconclusive
same,AC50,Cytochrome P450 1A2,inconclusive
S=C(NCCc1ccccc1)Nc1c(Cl)cccc1Cl,IC50,[11],4.31 µM (active)
same,IC50,[12],2.44 µM (active)
same,IC50,[13],0.447 µM (active)
same,IC50,[14],5.76 µM (active)
same,EC50,cells [15],> 29.9 µM (inactive)
same,IC50,[16],> 158 µM (not active)
same,IC50,[17],> 99 µM (inactive)
same,EC50,[18],0.565 µM (active)
same,IC50,[19],14.5 µM (active)
same,IC50,[20],0.342 µM (active)
same,IC50,[21],1.12 µM (active)
same,IC50,[22],> 100 µM (inactive)
same,IC50,cells [23],> 29.9 µM (inactive)
same,IC50,[24],0.347 µM (active)
same,IC50,[25],0.0345 µM (active)
same,IC50,[26],4.11 µM (active)
same,IC50,[27],> 99 µM (inactive)
